In patent US10821115B2, “Compounds that inhibit Mcl-1 protein” (priority 2017, dated 2020):
Like-named read-outs stand apart in the source and are kept apart here.

Legend:
[1] = system: human multiple myeloma cell line, OPM-2; assay: Cell viability assay (OPM-2 10 FBS), CellTiter-Glo; type: cell-based
In short: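 3000 cells/well, RPMI 1640 + 10% FBS; serial compound dilutions, 16 h, 37 °C/5% CO2.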

[2] = target: recombinant human Mcl-1 (residues 171-327) / Bim interaction (Homo sapiens (Human), UniProt Q07820); assay: biochemical; type: binding; conditions: read-out: Mcl-1 HTRF IC50
Chain of recombinant human Mcl-1 (residues 171-327) / Bim interaction (Q07820 171-327): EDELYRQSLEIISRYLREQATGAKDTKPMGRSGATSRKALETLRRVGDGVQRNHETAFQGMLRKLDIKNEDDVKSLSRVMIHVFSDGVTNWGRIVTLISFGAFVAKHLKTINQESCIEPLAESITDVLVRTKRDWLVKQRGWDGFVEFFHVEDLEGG

[3] = Homo sapiens, OPM-2, 16 h, read-out: OPM-2 10% FBS IC50 IP, OPM-2 cells, 10% FBS, 16 h incubation
[4] = 0.1 nM Mcl-1(171-327), 0.05 nM biotin-Bim (51-76)
[5] = read-out: OPM-2 10% FBS IC50 IP, OPM-2 cells, 10% FBS, 16 h, CellTiter-Glo
[6] = TR-FRET, Mcl-1(171-327) / biotin-Bim (51-76)
[7] = Homo sapiens, OPM-2, 16 h, read-out: OPM-2 10% FBS IC50 IP, OPM-2 cells, 10% FBS, 16 h, CellTiter-Glo

| Structure (SMILES) | IC50 [1, 3] [nM] | IC50 [2, 4] [nM] | IC50 [1, 5] [nM] | IC50 [2, 6] [nM] | IC50 [1, 7] [nM] |
| --- | --- | --- | --- | --- | --- |
| CO[C@@]1(CN2CCc3ccccc3C2)/C=C/C[C@H](C)[C@@H](C)S(=O)(=O)NC(=O)c2ccc3c(c2)N(C[C@@H]2CC[C@H]21)C[C@@]1(CCCc2cc(Cl)ccc21)CO3 [Example 148, (1S,3′R,6′R,7′S,8′E,11′S,12′R)-6-chloro-7′-(3,4-dihydro-2(1H)-isoquinolinylmethyl)-7′-methoxy-11′,12′-dimethyl-3,4-dihydro-2H,15′H-spiro[naphthalene-1,22′-[20]oxa[13]thia[1,14]diazatetracyclo [14.7.2.0~3,6~.0~19,24~]pentacosa[8,16,18,24]tetraen]-15′-one 13′,13′-dioxide] | 1610 | 1.2 |  |  |  |
| C[C@@H]1[C@@H](C)C/C=C/[C@@]2(COCCO2)[C@@H]2CC[C@H]2CN2C[C@@]3(CCCc4cc(Cl)ccc43)COc3ccc(cc32)C(=O)NS1(=O)=O [Example 100264, (2S,3′R,6′R,8′E,11′S,12′R,22′S)-6″-chloro-11′,12′-dimethyl-3″,4″-dihydro-2″H,15′H-dispiro[1,4-dioxane-2,7′-[20]oxa[13]thia[1,14]diazatetracyclo [14.7.2.0~3,6~.0~19,24~]pentacosa[8,16,18,24]tetraene-22′,1″-naphthalen]-15′-one 13′,13′-dioxide] |  |  | 600 | 0.384 |  |
| CO[C@@]1(Cc2nc(CO)co2)/C=C/C[C@H](C)[C@@H](C)S(=O)(=O)NC(=O)c2ccc3c(c2)N(C[C@@H]2CC[C@H]21)C[C@@]1(CCCc2cc(Cl)ccc21)CO3 [Example 100570, (1S,3′R,6′R,7′S,8′E,11′S,12′R)-6-chloro-7′-((4-(hydroxymethyl)-1,3-oxazol-2-yl)methyl)-7′-methoxy-11′,12′-dimethyl-3,4-dihydro-2H,15′H-spiro[naphthalene-1,22′-[20]oxa[13]thia[1,14]diazatetracyclo [14.7.2.0~3,6~.0~19,24~]pentacosa[8,16,18,24]tetraen]-15′-one 13′,13′-dioxide] |  |  |  | 3.38 | 5050 |
| C[C@@H]1[C@@H](C)CCC[C@@](O)(Cc2nccs2)[C@@H]2CC[C@H]2CN2C[C@@]3(CCCc4cc(Cl)ccc43)COc3ccc(cc32)C(=O)NS1(=O)=O (single isomer, unassigned) [Example 100251] |  |  | 3730 | 3.29 |  |
| C[C@@H]1[C@@H](C)C/C=C/[C@@](CC(=O)N(C)C)(OCCN2CCOCC2)[C@@H]2CC[C@H]2CN2C[C@@]3(CCCc4cc(Cl)ccc43)COc3ccc(cc32)C(=O)NS1(=O)=O (single isomer, unassigned) [Example 100310] |  |  |  | 0.152 | 120 |
| CO[C@@]1(CN2CCN3CCOC[C@@H]3C2)/C=C/C[C@H](C)[C@@H](CCO)S(=O)(=O)NC(=O)c2ccc3c(c2)N(C[C@@H]2CC[C@H]21)C[C@@]1(CCCc2cc(Cl)ccc21)CO3 [Example 346, (1S,3′R,6′R,7′S,8′E,11′S,12′R)-6-Chloro-7′-((9aS)-hexahydropyrazino[2,1-c][1,4]oxazin-8(1H)-ylmethyl)-12′-(2-hydroxyethyl)-7′-methoxy-11′-methyl-3,4-dihydro-2H, 15′H-spiro[naphthalene-1,22′-[20]oxa[13]thia[1,14]diazatetracyclo[14.7.2.0-3,6˜.0˜19,24˜]pentacosa[8,16,18,24]tetraen]-15′-one 13′,13′-dioxide] | 66 | 0.062 |  |  |  |
| C[C@@H]1[C@@H](C)CCC[C@@](O)(CC(=O)N2CCOC2=O)[C@@H]2CC[C@H]2CN2C[C@@]3(CCCc4cc(Cl)ccc43)COc3ccc(cc32)C(=O)NS1(=O)=O [Example 100153, (1S,3′R,6′R,7′R,11′S,12′R)-6-chloro-7′-hydroxy-11′,12′-dimethyl-7′-(2-oxo-2-(2-oxo-1,3-oxazolidin-3-yl)ethyl)-3,4-dihydro-2H,15′H-spiro[naphthalene-1,22′-[20]oxa[13]thia[1,14]diazatetracyclo [14.7.2.0~3,6~.0~19,24~]pentacosa[16,18,24]trien]-15′-one 13′,13′-dioxide] |  |  | 4660 | 0.738 |  |
